# Laboratory results: ChEMBL document CHEMBL1128947, “Asiaticoside mimetics as wound healing agent” (1996)
# Species: Rattus norvegicus
# Assay: Tested for its effect on the wound healing in rats at 7th postoperative day by measuring tensile strength of skin strips from the wound segments; value relative to control(100)
# Format: functional
row,Compound,Relative value
1,COCCOCOC(=O)[C@]12CC[C@@H](C)[C@H](C)C1C1=CCC3[C@@]4(C)C[C@@H](O)[C@H](O)[C@@](C)(CO)C4CC[C@@]3(C)[C@]1(C)CC2 (stereo not given in full),139
2,CCCCOC(C)OC(=O)[C@]12CC[C@@H](C)[C@H](C)C1C1=CCC3[C@@]4(C)C[C@@H](O)[C@H](O)[C@@](C)(CO)C4CC[C@@]3(C)[C@]1(C)CC2 (stereo not given in full),126
3,C[C@@H]1CC[C@]2(C(=O)O)CC[C@]3(C)C(=CCC4[C@@]5(C)C[C@@H](O)[C@H](O)[C@@](C)(CO)C5CC[C@]43C)C2[C@H]1C (stereo not given in full),146
4,C[C@@H]1CC[C@]2(C(=O)OC3CCCCO3)CC[C@]3(C)C(=CCC4[C@@]5(C)C[C@@H](O)[C@H](O)[C@@](C)(CO)C5CC[C@]43C)C2[C@H]1C (stereo not given in full),168
5,COCOC(=O)[C@]12CC[C@@H](C)[C@H](C)C1C1=CCC3[C@@]4(C)C[C@@H](O)[C@H](O)[C@@](C)(CO)C4CC[C@@]3(C)[C@]1(C)CC2 (stereo not given in full),141
6,CC(=O)OC[C@@]1(C)C2CC[C@]3(C)C(CC=C4C5[C@@H](C)[C@H](C)CC[C@]5(C(=O)OC5CCCCO5)CC[C@]43C)[C@@]2(C)C[C@@H](OC(C)=O)[C@@H]1OC(C)=O (stereo not given in full),173
7,CCOCOC(=O)[C@]12CC[C@@H](C)[C@H](C)C1C1=CCC3[C@@]4(C)C[C@@H](O)[C@H](O)[C@@](C)(CO)C4CC[C@@]3(C)[C@]1(C)CC2 (stereo not given in full),166
8,COCCOCOC(=O)[C@]12CC[C@@H](C)[C@H](C)C1C1=CCC3[C@@]4(C)C[C@@H](OC(C)=O)[C@H](OC(C)=O)[C@@](C)(COC(C)=O)C4CC[C@@]3(C)[C@]1(C)CC2 (stereo not given in full),141
9,CCOCOC(=O)[C@]12CC[C@@H](C)[C@H](C)C1C1=CCC3[C@@]4(C)C[C@@H](OC(C)=O)[C@H](OC(C)=O)[C@@](C)(COC(C)=O)C4CC[C@@]3(C)[C@]1(C)CC2 (stereo not given in full),215
10,CCOC(C)OC(=O)[C@]12CC[C@@H](C)[C@H](C)C1C1=CCC3[C@@]4(C)C[C@@H](O)[C@H](O)[C@@](C)(CO)C4CC[C@@]3(C)[C@]1(C)CC2 (stereo not given in full),135
11,C[C@@H]1CC[C@]2(C(=O)OCOCc3ccccc3)CC[C@]3(C)C(=CCC4[C@@]5(C)C[C@@H](O)[C@H](O)[C@@](C)(CO)C5CC[C@]43C)C2[C@H]1C (stereo not given in full),114
12,COCOC(=O)[C@]12CC[C@@H](C)[C@H](C)C1C1=CCC3[C@@]4(C)C[C@@H](OC(C)=O)[C@H](OC(C)=O)[C@@](C)(COC(C)=O)C4CC[C@@]3(C)[C@]1(C)CC2 (stereo not given in full),145
13,CC(=O)OC[C@@]1(C)C2CC[C@]3(C)C(CC=C4C5[C@@H](C)[C@H](C)CC[C@]5(C(=O)OC5CCCO5)CC[C@]43C)[C@@]2(C)C[C@@H](OC(C)=O)[C@@H]1OC(C)=O (stereo not given in full),145
14,CCCCCCCCOCOC(=O)[C@]12CC[C@@H](C)[C@H](C)C1C1=CCC3[C@@]4(C)C[C@@H](OC(C)=O)[C@H](OC(C)=O)[C@@](C)(COC(C)=O)C4CC[C@@]3(C)[C@]1(C)CC2 (stereo not given in full),137
15,CCCCCCCCOCOC(=O)[C@]12CC[C@@H](C)[C@H](C)C1C1=CCC3[C@@]4(C)C[C@@H](O)[C@H](O)[C@@](C)(CO)C4CC[C@@]3(C)[C@]1(C)CC2 (stereo not given in full),163

# Species: Rattus norvegicus
# Assay: Effect on the wound healing in rats at 7th postoperative day by measuring tensile strength of skin strips from the wound segments
# Format: functional
row,Compound,Tensile strength
1,COCCOCOC(=O)[C@]12CC[C@@H](C)[C@H](C)C1C1=CCC3[C@@]4(C)C[C@@H](O)[C@H](O)[C@@](C)(CO)C4CC[C@@]3(C)[C@]1(C)CC2 (stereo not given in full),398 g cm**-2
2,CCCCOC(C)OC(=O)[C@]12CC[C@@H](C)[C@H](C)C1C1=CCC3[C@@]4(C)C[C@@H](O)[C@H](O)[C@@](C)(CO)C4CC[C@@]3(C)[C@]1(C)CC2 (stereo not given in full),362 g cm**-2
3,C[C@@H]1CC[C@]2(C(=O)O)CC[C@]3(C)C(=CCC4[C@@]5(C)C[C@@H](O)[C@H](O)[C@@](C)(CO)C5CC[C@]43C)C2[C@H]1C (stereo not given in full),418 g cm**-2
4,C[C@@H]1CC[C@]2(C(=O)OC3CCCCO3)CC[C@]3(C)C(=CCC4[C@@]5(C)C[C@@H](O)[C@H](O)[C@@](C)(CO)C5CC[C@]43C)C2[C@H]1C (stereo not given in full),481 g cm**-2
5,COCOC(=O)[C@]12CC[C@@H](C)[C@H](C)C1C1=CCC3[C@@]4(C)C[C@@H](O)[C@H](O)[C@@](C)(CO)C4CC[C@@]3(C)[C@]1(C)CC2 (stereo not given in full),404 g cm**-2
6,CC(=O)OC[C@@]1(C)C2CC[C@]3(C)C(CC=C4C5[C@@H](C)[C@H](C)CC[C@]5(C(=O)OC5CCCCO5)CC[C@]43C)[C@@]2(C)C[C@@H](OC(C)=O)[C@@H]1OC(C)=O (stereo not given in full),393 g cm**-2
7,CCOCOC(=O)[C@]12CC[C@@H](C)[C@H](C)C1C1=CCC3[C@@]4(C)C[C@@H](O)[C@H](O)[C@@](C)(CO)C4CC[C@@]3(C)[C@]1(C)CC2 (stereo not given in full),476 g cm**-2
8,COCCOCOC(=O)[C@]12CC[C@@H](C)[C@H](C)C1C1=CCC3[C@@]4(C)C[C@@H](OC(C)=O)[C@H](OC(C)=O)[C@@](C)(COC(C)=O)C4CC[C@@]3(C)[C@]1(C)CC2 (stereo not given in full),320 g cm**-2
9,CCOCOC(=O)[C@]12CC[C@@H](C)[C@H](C)C1C1=CCC3[C@@]4(C)C[C@@H](OC(C)=O)[C@H](OC(C)=O)[C@@](C)(COC(C)=O)C4CC[C@@]3(C)[C@]1(C)CC2 (stereo not given in full),487 g cm**-2
10,CCOC(C)OC(=O)[C@]12CC[C@@H](C)[C@H](C)C1C1=CCC3[C@@]4(C)C[C@@H](O)[C@H](O)[C@@](C)(CO)C4CC[C@@]3(C)[C@]1(C)CC2 (stereo not given in full),387 g cm**-2
11,C[C@@H]1CC[C@]2(C(=O)OCOCc3ccccc3)CC[C@]3(C)C(=CCC4[C@@]5(C)C[C@@H](O)[C@H](O)[C@@](C)(CO)C5CC[C@]43C)C2[C@H]1C (stereo not given in full),327 g cm**-2
12,COCOC(=O)[C@]12CC[C@@H](C)[C@H](C)C1C1=CCC3[C@@]4(C)C[C@@H](OC(C)=O)[C@H](OC(C)=O)[C@@](C)(COC(C)=O)C4CC[C@@]3(C)[C@]1(C)CC2 (stereo not given in full),330 g cm**-2
13,CC(=O)OC[C@@]1(C)C2CC[C@]3(C)C(CC=C4C5[C@@H](C)[C@H](C)CC[C@]5(C(=O)OC5CCCO5)CC[C@]43C)[C@@]2(C)C[C@@H](OC(C)=O)[C@@H]1OC(C)=O (stereo not given in full),331 g cm**-2
14,CCCCCCCCOCOC(=O)[C@]12CC[C@@H](C)[C@H](C)C1C1=CCC3[C@@]4(C)C[C@@H](OC(C)=O)[C@H](OC(C)=O)[C@@](C)(COC(C)=O)C4CC[C@@]3(C)[C@]1(C)CC2 (stereo not given in full),310 g cm**-2
15,CCCCCCCCOCOC(=O)[C@]12CC[C@@H](C)[C@H](C)C1C1=CCC3[C@@]4(C)C[C@@H](O)[C@H](O)[C@@](C)(CO)C4CC[C@@]3(C)[C@]1(C)CC2 (stereo not given in full),468 g cm**-2
